# Experimental data from PubChem BioAssay AID2823 (Broad Institute, 2010).
# pIC50: −log10 of the molar value. Active and inactive are the calls of the source. The rule behind the calls is not given here.
# Molecular target: RanGTP-importin-beta complex (human Ran / KPNB1)
# Experiment: Ran–importin-beta interaction inhibitors, confirmation, biochemical, FRET, CFP/YFP, cell-free homogeneous (AID 2823)
# Conditions: CFP-Ran/YFP-importin-beta FRET ratio
SMILES,pIC50,IC50
CCN1C(=O)/C(=C2/Sc3ccccc3N2CCCS(=O)(=O)O)SC1=S,4.82,–
COc1ccccc1CNC(=O)COC(=O)Cc1ccc(Cl)cc1,–,> 50 µM (inactive)
O=C(Oc1c(Br)cc(C(=S)N2CCOCC2)cc1Br)c1ccc(Cl)cc1,–,> 50 µM (inactive)
Cc1ccc2cc(C#N)c(NCCNC(=O)C3CCC3)nc2c1C,–,> 50 µM (inactive)
COc1cccc(C2=NOC(C(=O)Nc3cc(C)on3)C2)c1 (stereo not given),–,> 50 µM (inactive)
CNC(=O)c1c(C)[nH]c(=S)c(C#N)c1-c1ccco1,–,> 50 µM (inactive)
COc1ccc(C2NC(=S)NC3=C2CCCC3=C2SCCS2)cc1 (stereo not given),–,> 50 µM (inactive)
Cc1c(CC(=O)N2CCN(C(=O)C3COc4ccccc4O3)CC2)c(=O)oc2cc(O)c(Cl)cc12 (stereo not given),5.32,–
CC(NC(=O)/C(C#N)=C/c1ccc(N2CCOCC2)cc1)c1ccccc1 (stereo not given),4.70,–
CCOC(=O)c1ccc(NC(=O)CSc2nc(C)nc3c2c(=O)n(C)c(=O)n3C)cc1,–,> 50 µM (inactive)
COc1cc(C(=O)Oc2c(CN3CCOCC3)cc(Cl)c3cccnc23)cc(OC)c1OC,–,> 50 µM (inactive)
CCC(C)c1ccc(OCC(=O)O)cc1 (stereo not given),–,> 50 µM (inactive)
N#Cc1cc(NCC2CCCO2)c([N+](=O)[O-])cc1C#N (stereo not given),–,> 50 µM (inactive)
CCOc1ccccc1NC1=CC(=O)CC(c2ccccc2)C1 (stereo not given),–,> 50 µM (inactive)
CCc1c(C)c2cc(Cl)c(O)c(CN3CCCCC3)c2oc1=O,4.64,–
COC(=O)C1=CN(c2ccc(OC)cc2)C=C(C(=O)OC)C1c1cccc(F)c1,4.45,–
CCCCCN(C(=O)CN(C)Cc1ccc(OC)cc1OC)c1c(N)n(CCCC)c(=O)[nH]c1=O,–,> 50 µM (inactive)
CCN(Cc1ccccc1)C(=O)CN1C(=O)NC(CC)(c2ccc(F)cc2)C1=O (stereo not given),–,> 50 µM (inactive)
CCn1c(=O)cc(N2CCCCC2)[nH]c1=O,–,> 50 µM (inactive)
Cc1ccc(Cl)cc1-n1c(=O)cc(N2CC(C)OC(C)C2)[nH]c1=O (stereo not given),–,> 50 µM (inactive)
CC(=O)N1CCc2c(sc(NC(=O)CCS(=O)(=O)c3ccc(C)cc3)c2C(N)=O)C1,4.51,–
CSc1ncccc1C(=O)OCC(=O)c1cc2ccccc2o1,–,> 50 µM (inactive)
O=[N+]([O-])c1cccc(-c2n[nH]c(=S)n2-c2ccc(Br)cc2)c1,–,> 50 µM (inactive)
CC1=C(C(=O)OC(C)C)C(c2cccnc2)C2=C(CC(C)(C)CC2=O)N1 (stereo not given),4.69,–
O=C(Cn1c2ccccc2c(=O)c2ccccc21)N/N=C/c1ccc(N2CCCC2)c([N+](=O)[O-])c1,–,> 50 µM (inactive)

SMILES,pIC50,IC50
COC(=O)c1n[nH]c2ccccc12,4.32,–
COc1ccc(C(=O)Nc2ccc(S(=O)(=O)Nc3onc(C)c3C)cc2)cc1,–,> 50 µM (inactive)
CC(=O)Nc1cccc(C(=O)N/N=C/c2ccc(F)cc2)c1,–,> 50 µM (inactive)
CCOC(=O)N1CCN(c2cc(=O)n(-c3ccccc3C)c(=O)[nH]2)CC1,–,> 50 µM (inactive)
CC/C(=N\NC(=O)c1cc(C2CC2)[nH]n1)c1ccccc1,–,> 50 µM (inactive)
COCCNC(=O)/C(C#N)=C/c1ccc(-c2ccc(S(=O)(=O)N3CCOCC3)cc2)o1,–,> 50 µM (inactive)
CCOc1ccc(C)cc1S(=O)(=O)Nc1ccc(Cl)cn1,–,> 50 µM (inactive)
CN(Cc1cnc2nc(N)nc(N)c2n1)c1ccc(C(=O)N[C@@H](CCC(=O)O)C(=O)O)cc1,–,> 50 µM (inactive)
Cc1cc(C(=O)O)ccc1-c1ccc(/C=C2\NC(=O)N(Cc3ccccc3Cl)C2=O)o1,4.97,–
CCCCn1c(N)c(N(CCOC)C(=O)CN2c3ccccc3CC2C)c(=O)[nH]c1=O (stereo not given),–,> 50 µM (inactive)
CCOC(=O)N1CCN(c2cc(=O)n(Cc3ccc(F)cc3)c(=O)[nH]2)CC1,–,> 50 µM (inactive)
O=c1cc(N2CCN(Cc3ccccc3)CC2)[nH]c(=O)n1-c1ccc(Br)cc1,–,> 50 µM (inactive)
CCOC(=O)C1=C(N)Oc2ccc3ccccc3c2C1c1ccc(O)c(OC)c1 (stereo not given),–,> 50 µM (inactive)
CCN(CC(=O)Nc1cccc(S(=O)(=O)N2CCCCC2)c1)Cc1ccccc1,–,> 50 µM (inactive)
COc1ccc(-c2nc3ccc(C(=O)NCCCN4CCOCC4)cc3nc2-c2ccc(OC)cc2)cc1,4.33,–
CO/N=C\c1cc(C(=O)c2ccc(Cl)cc2Cl)cn1C,–,> 50 µM (inactive)
NS(=O)(=O)c1cccc(NC(=O)CCSc2ccc(Cl)cc2)c1,–,> 50 µM (inactive)
N#C/C(=C\c1ccc(N2CCOCC2)o1)C(=O)NC1CCCCC1,5.56,–
O=c1[nH]c2c(s1)C(c1ccco1)C1C3CCC(C3)C1S2 (stereo not given),–,> 50 µM (inactive)
CC1CN(c2cc(=O)n(-c3cccc(Br)c3)c(=O)[nH]2)CC(C)O1 (stereo not given),–,> 50 µM (inactive)
N#C/C(=C\c1ccc(-c2ccc(F)cc2)o1)C(=O)Nc1nc(-c2cccs2)cs1,–,> 50 µM (inactive)
CC(C)Sc1nnc(CNC(=O)C23CC4CC(CC(C4)C2)C3)n1C1CCCCC1,–,> 50 µM (inactive)
Cc1c(C=O)cnn1CCC(=O)O,–,> 50 µM (inactive)
Cc1sc2ncn(CC(=O)NCCCC(=O)N3CCN(Cc4ccc5c(c4)OCO5)CC3)c(=O)c2c1C,–,> 50 µM (inactive)
C=CCNC(=O)c1cccc(OC2CCN(CC(C)(C)C)CC2)c1,–,> 50 µM (inactive)
